{"source": "patent US20070082880A1", "about": "(priority 2005, published 2007)"}
{"biological_target": "T1, human PKCθ full length enzyme (Homo sapiens, UniProt Q04759)", "T1 construct": "human PKCθ full length enzyme (Panvera Catalog No. P2996); purchased Panvera P2996", "T1 sequence (Q04759 whole entry)": "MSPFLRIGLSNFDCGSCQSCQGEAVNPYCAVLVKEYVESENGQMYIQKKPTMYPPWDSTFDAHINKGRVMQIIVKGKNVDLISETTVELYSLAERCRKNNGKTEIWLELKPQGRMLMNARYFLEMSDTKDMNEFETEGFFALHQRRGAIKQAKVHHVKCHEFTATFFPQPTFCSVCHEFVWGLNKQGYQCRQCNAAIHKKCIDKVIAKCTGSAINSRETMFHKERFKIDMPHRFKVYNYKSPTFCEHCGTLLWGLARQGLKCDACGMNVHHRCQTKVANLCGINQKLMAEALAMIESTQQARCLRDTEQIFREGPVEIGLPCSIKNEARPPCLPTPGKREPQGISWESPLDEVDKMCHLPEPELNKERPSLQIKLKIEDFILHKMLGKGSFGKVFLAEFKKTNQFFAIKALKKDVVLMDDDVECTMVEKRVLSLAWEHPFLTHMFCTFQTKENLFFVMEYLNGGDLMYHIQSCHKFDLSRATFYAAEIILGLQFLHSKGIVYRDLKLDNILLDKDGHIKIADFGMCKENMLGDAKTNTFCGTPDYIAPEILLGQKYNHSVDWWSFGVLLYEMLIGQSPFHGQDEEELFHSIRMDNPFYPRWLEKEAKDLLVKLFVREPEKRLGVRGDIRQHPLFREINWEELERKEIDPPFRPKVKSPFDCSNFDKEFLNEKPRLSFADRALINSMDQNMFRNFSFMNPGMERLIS", "assay": "PKCθ IMAP Assay", "type": "biochemical", "conditions": "average value when one or more samples were tested; ATP 6 uM, PKCθ 1 nM", "in_short": "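Full-length human PKCθ (1 nM final) with 6 uM ATP and 100 nM 5FAM-labelled peptide, 5% DMSO, 3.0 mM DTT in reaction buffer. 25 min at room temperature; IMAP bead binding 20 min, fluorescence polarization read. Compounds 2:1 serially diluted; no-ATP and no-enzyme wells as controls.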", "units": {"IC50": "nM"}}
{"smiles": "N#Cc1cnc2sc(/C=C/C(N)=O)cc2c1Nc1ccc2[nH]ccc2c1", "note": "[Compound 292, (2E)-3-[5-cyano-4-(1H-indol-5-ylamino)thieno[2,3-b]pyridin-2-yl]acrylamide]", "IC50": 183}
{"smiles": "N#Cc1cnc2sc(/C=C/C(=O)Nc3cccnc3)cc2c1Nc1ccc2[nH]ccc2c1", "note": "[Compound 293, (2E)-3-[5-cyano-4-(1H-indol-5-ylamino)thieno[2,3-b]pyridin-2-yl]-N-pyridin-3-ylacrylamide]", "IC50": 33600}
{"smiles": "Cc1c(Nc2c(C#N)cnc3sc(/C=C/C(=O)N4CCCC4)cc23)ccc2[nH]ccc12", "note": "[Compound 294, 4-[(4-methyl-1H-indol-5-yl)amino]-2-[(1E)-3-oxo-3-pyrrolidin-1-ylprop-1-en-1-yl]thieno[2,3-b]pyridine-5-carbonitrile]", "IC50": 4}
{"smiles": "Cc1c(Nc2c(C#N)cnc3sc(/C=C/C(=O)N4CCN(C)CC4)cc23)ccc2[nH]ccc12", "note": "[Compound 295, 4-[(4-methyl-1H-indol-5-yl)amino]-2-[(1E)-3-(4-methylpiperazin-1-yl)-3-oxoprop-1-en-1-yl]thieno[2,3-b]pyridine-5-carbonitrile]", "IC50": 43}
{"smiles": "Cc1c(Nc2c(C#N)cnc3sc(/C=C/C(=O)Nc4cccnc4)cc23)ccc2[nH]ccc12", "note": "[Compound 296, (2E)-3-{5-cyano-4-[(4-methyl-1H-indol-5-yl)amino]thieno[2,3-b]pyridin-2-yl}-N-pyridin-3-ylacrylamide]", "IC50": 17}
{"smiles": "Cc1c(Nc2c(C#N)cnc3sc(/C=C/C(N)=O)cc23)ccc2[nH]ccc12", "note": "[Compound 297, (2E)-3-{5-cyano-4-[(4-methyl-1H-indol-5-yl)amino]thieno[2,3-b]pyridin-2-yl}acrylamide]", "IC50": 12}
{"smiles": "Cc1c(Nc2c(C#N)cnc3sc(/C=C/C(=O)N4CCCCC4)cc23)ccc2[nH]ccc12", "note": "[Compound 298, 4-[(4-methyl-1H-indol-5-yl)amino]-2-[(1E)-3-oxo-3-piperidin-1-ylprop-1-en-1-yl]thieno[2,3-b]pyridine-5-carbonitrile]", "IC50": 48}
{"smiles": "Cc1c(Nc2c(C#N)cnc3sc(/C=C/C(=O)N4CCC[C@H]4CN4CCCC4)cc23)ccc2[nH]ccc12", "note": "[Compound 299, 4-[(4-methyl-1H-indol-5-yl)amino]-2-{(1E)-3-oxo-3-[(2S)-2-(pyrrolidin-1-ylmethyl)pyrrolidin-1-yl]prop-1-en-1-yl}thieno[2,3-b]pyridine-5-carbonitrile]", "IC50": 32}
{"smiles": "Cc1c(Nc2c(C#N)cnc3sc(/C=C/C(=O)N4CC[C@@H](N(C)C)C4)cc23)ccc2[nH]ccc12", "note": "[Compound 300, 2-{(1E)-3-[(3R)-3-(dimethylamino)pyrrolidin-1-yl]-3-oxoprop-1-en-1-yl}-4-[(4-methyl-1H-indol-5-yl)amino]thieno[2,3-b]pyridine-5-carbonitrile]", "IC50": 175}
{"smiles": "Cc1c(Nc2c(C#N)cnc3sc(/C=C/C(=O)N4CC[C@H](N(C)C)C4)cc23)ccc2[nH]ccc12", "note": "[Compound 301, 2-{(1E)-3-[(3S)-3-(dimethylamino)pyrrolidin-1-yl]-3-oxoprop-1-en-1-yl}-4-[(4-methyl-1H-indol-5-yl)amino]thieno[2,3-b]pyridine-5-carbonitrile]", "IC50": 171}
{"smiles": "Cc1c(Nc2c(C#N)cnc3sc(/C=C/C(=O)N4CCCC4)c(C)c23)ccc2[nH]ccc12", "note": "[Compound 302, 3-methyl-4-[(4-methyl-1H-indol-5-yl)amino]-2-[(1E)-3-oxo-3-pyrrolidin-1-ylprop-1-en-1-yl]thieno[2,3-b]pyridine-5-carbonitrile]", "IC50": 4}
{"smiles": "Cc1c(Nc2c(C#N)cnc3sc(/C=C/C(=O)Nc4ccccc4)cc23)ccc2[nH]ccc12", "note": "[Compound 303, (2E)-3-{5-cyano-4-[(4-methyl-1H-indol-5-yl)amino]thieno[2,3-b]pyridin-2-yl}-N-phenylacrylamide]", "IC50": 111}
{"smiles": "Cc1c(Nc2c(C#N)cnc3sc(/C=C/C(=O)Nc4ccncc4)cc23)ccc2[nH]ccc12", "note": "[Compound 304, (2E)-3-{5-cyano-4-[(4-methyl-1H-indol-5-yl)amino]thieno[2,3-b]pyridin-2-yl}-N-pyridin-4-ylacrylamide]", "IC50": 43}
{"smiles": "Cc1c(Nc2c(C#N)cnc3sc(/C=C/C(=O)N(C)C)cc23)ccc2[nH]ccc12", "note": "[Compound 305, (2E)-3-{5-cyano-4-[(4-methyl-1H-indol-5-yl)amino]thieno[2,3-b]pyridin-2-yl}-N,N-dimethylacrylamide]", "IC50": 2}
{"smiles": "CCN(CC)C(=O)/C=C/c1cc2c(Nc3ccc4[nH]ccc4c3C)c(C#N)cnc2s1", "note": "[Compound 306, (2E)-3-{5-cyano-4-[(4-methyl-1H-indol-5-yl)amino]thieno[2,3-b]pyridin-2-yl}-N,N-diethylacrylamide]", "IC50": 2}
{"smiles": "CCNC(=O)/C=C/c1cc2c(Nc3ccc4[nH]ccc4c3C)c(C#N)cnc2s1", "note": "[Compound 307, (2E)-3-{5-cyano-4-[(4-methyl-1H-indol-5-yl)amino]thieno[2,3-b]pyridin-2-yl}-N-ethylacrylamide]", "IC50": 15}
{"smiles": "COCCNC(=O)/C=C/c1cc2c(Nc3ccc4[nH]ccc4c3C)c(C#N)cnc2s1", "note": "[Compound 308, (2E)-3-{5-cyano-4-[(4-methyl-1H-indol-5-yl)amino]thieno[2,3-b]pyridin-2-yl}-N-(2-methoxyethyl)acrylamide]", "IC50": 48}
{"smiles": "Cc1c(Nc2c(C#N)cnc3sc(/C=C/C(=O)N4CCOCC4)cc23)ccc2[nH]ccc12", "note": "[Compound 309, 4-[(4-methyl-1H-indol-5-yl)amino]-2-[(1E)-3-morpholin-4-yl-3-oxoprop-1-en-1-yl]thieno[2,3-b]pyridine-5-carbonitrile]", "IC50": 53}
{"smiles": "Cc1c(Nc2c(C#N)cnc3sc(/C=C/C(=O)N4CCC(O)C4)cc23)ccc2[nH]ccc12", "note": "(centres unmarked) [Compound 310, 2-[(1E)-3-(3-hydroxypyrrolidin-1-yl)-3-oxoprop-1-en-1-yl]-4-[(4-methyl-1H-indol-5-yl)amino]thieno[2,3-b]pyridine-5-carbonitrile]", "IC50": 41}
{"smiles": "Cc1c(Nc2c(C#N)cnc3sc(/C=C/C(=O)N4CCNCC4)cc23)ccc2[nH]ccc12", "note": "[Compound 311, 4-[(4-methyl-1H-indol-5-yl)amino]-2-[(1E)-3-oxo-3-piperazin-1-ylprop-1-en-1-yl]thieno[2,3-b]pyridine-5-carbonitrile]", "IC50": 88}
{"smiles": "Cc1c(Nc2c(C#N)cnc3sc(/C=C/C(=O)N(C)CCN(C)C)cc23)ccc2[nH]ccc12", "note": "[Compound 312, (2E)-3-{5-cyano-4-[(4-methyl-1H-indol-5-yl)amino]thieno[2,3-b]pyridin-2-yl}-N-[2-(dimethylamino)ethyl]-N-methylacrylamide]", "IC50": 151}
{"smiles": "Cc1c(Nc2c(C#N)cnc3sc(/C=C/C(=O)NN(C)C)cc23)ccc2[nH]ccc12", "note": "[Compound 313, (2E)-3-{5-cyano-4-[(4-methyl-1H-indol-5-yl)amino]thieno[2,3-b]pyridin-2-yl}-N′,N′-dimethylacrylohydrazide]", "IC50": 104}
{"smiles": "Cc1c(Nc2c(C#N)cnc3sc(/C=C/C(=O)NN4CCCC4)cc23)ccc2[nH]ccc12", "note": "[Compound 314, (2E)-3-{5-cyano-4-[(4-methyl-1H-indol-5-yl)amino]thieno[2,3-b]pyridin-2-yl}-N-pyrrolidin-1-ylacrylamide]", "IC50": 375}
{"smiles": "Cc1c(I)sc2ncc(C#N)c(Nc3ccc4[nH]ccc4c3)c12", "note": "[Compound 317, 4-(1H-Indol-5-ylamino)-2-iodo-3-methylthieno[2,3-b]pyridine-5-carbonitrile]", "IC50": 718}
{"smiles": "Cc1c(Nc2c(C#N)cnc3sc(I)c(C)c23)ccc2[nH]ccc12", "note": "[Compound 318, 2-Iodo-3-methyl-4-[(4-methyl-1H-indol-5-yl)amino]thieno[2,3-b]pyridine-5-carbonitrile]", "IC50": 80}
{"smiles": "Cc1ccc2[nH]ccc2c1Nc1c(C#N)cnc2sc(-c3ccccc3)cc12", "note": "[Compound 319, 4-[(5-methyl-1H-indol-4-yl)amino]-2-phenylthieno[2,3-b]pyridine-5-carbonitrilee]", "IC50": 1110}
{"smiles": "CN(C)Cc1cccc(-c2cc3c(Nc4cnc5[nH]ccc5c4)c(C#N)cnc3s2)c1", "note": "[Compound 320, 2-{3-[(dimethylamino)methyl]phenyl}-4-(1H-pyrrolo[2,3-b]pyridin-5-ylamino)thieno[2,3-b]pyridine-5-carbonitrile]", "IC50": 690}
{"smiles": "CC(C)c1c(I)sc2ncc(C#N)c(Nc3ccc4[nH]ccc4c3)c12", "note": "[Compound 321, 4-(1H-indol-5-ylamino)-2-iodo-3-isopropylthieno[2,3-b]pyridine-5-carbonitrile]", "IC50": 345}
{"smiles": "N#Cc1cnc2sc(-c3ccccc3)cc2c1Nc1cnc2[nH]ccc2c1", "note": "[Compound 322, 2-phenyl-4-(1H-pyrrolo[2,3-b]pyridin-5-ylamino)thieno[2,3-b]pyridine-5-carbonitrile]", "IC50": 4670}
{"smiles": "Cc1cc2[nH]ccc2cc1Nc1c(C#N)cnc2sc(-c3ccccc3)cc12", "note": "[Compound 323, 4-[(6-methyl-1H-indol-5-yl)amino]-2-phenylthieno[2,3-b]pyridine-5-carbonitrile]", "IC50": 87}
{"smiles": "Cc1c(Nc2c(C#N)cnc3sc(I)c(C(C)C)c23)ccc2[nH]ccc12", "note": "[Compound 324, 2-iodo-3-isopropyl-4-[(4-methyl-1H-indol-5-yl)amino]thieno[2,3-b]pyridine-5-carbonitrile]", "IC50": 65}
{"smiles": "Cc1c(Nc2c(C#N)cnc3scc(Br)c23)ccc2[nH]ccc12", "note": "[Compound 325, 3-bromo-4-[(4-methyl-1H-indol-5-yl)amino]thieno[2,3-b]pyridine-5-carbonitrile]", "IC50": 15}
{"smiles": "CN(C)Cc1cccc(-c2cc3c(Nc4cccnc4)c(C#N)cnc3s2)c1", "note": "[Compound 326, 2-{3-[(dimethylamino)methyl]phenyl}-4-(pyridin-3-ylamino)thieno[2,3-b]pyridine-5-carbonitrile]", "IC50": 31000}
{"smiles": "CN(C)Cc1cccc(-c2cc3c(Nc4ccncc4)c(C#N)cnc3s2)c1", "note": "[Compound 327, 2-{3-[(dimethylamino)methyl]phenyl}-4-(pyridin-4-ylamino)thieno[2,3-b]pyridine-5-carbonitrile]", "IC50": 16400}
{"smiles": "N#Cc1cnc2sc(-c3ccc4ccccc4c3)cc2c1Nc1ccc2[nH]ccc2c1", "note": "[Compound 328, 4-(1H-indol-5-ylamino)-2-(2-naphthyl)thieno[2,3-b]pyridine-5-carbonitrile]", "IC50": 1380}
